Data as given in PubChem BioAssay AID1745844 (Carcinogenic Potency Database (CPDB), 2022).
The source made the active and inactive calls. No rule for the calls is given here.

Test system: rodent lifetime carcinogenesis bioassay, tumor incidence TD50
Test: chronic cancer bioassays in animals – CPDB, compiled studies (AID 1745844)

`CCC1CO1` (centres undefined) was tested, and the TD50 (mouse, strain B6C3F1, females, inhaled, site: any site (literature study), lesion: several types, types named in the paper, dosed 102 weeks, study length 104 weeks) was 141 mg/kg/day (inactive), the TD50 (mouse, strain B6C3F1, females, inhaled, site: liver, lesion: hepatocellular adenoma + hepatocellular carcinoma + neoplastic nodule, dosed 102 weeks, study length 104 weeks) was 445 mg/kg/day and the TD50 (mouse, strain B6C3F1, females, inhaled, site: lung, lesion: alveolar/bronchiolar adenoma + alveolar/bronchiolar carcinoma, dosed 102 weeks, study length 104 weeks) was 834 mg/kg/day. For the same molecule, the TD50 (mouse, strain B6C3F1, males, inhaled, site: any site (literature study), lesion: several types, types named in the paper, dosed 102 weeks, study length 104 weeks) was 2470 mg/kg/day (inactive), the TD50 (mouse, strain B6C3F1, males, inhaled, site: liver, lesion: hepatocellular adenoma + hepatocellular carcinoma + neoplastic nodule, dosed 102 weeks, study length 104 weeks) was 8600 mg/kg/day and the TD50 (rat, strain Fischer 344, females, inhaled, site: any site (literature study), lesion: several types, types named in the paper, dosed 103 weeks, study length 105 weeks) was 78 mg/kg/day. The TD50 (rat, strain Fischer 344, females, inhaled, site: nasal cavity, lesion: papillary adenoma, dosed 103 weeks, study length 105 weeks) was 1730 mg/kg/day, the TD50 (rat, strain Fischer 344, females, inhaled, site: ovary, lesion: granulosa-cell carcinoma + granulosa-cell tumor + thecoma, dosed 103 weeks, study length 105 weeks) was 545 mg/kg/day and the TD50 (rat, strain Fischer 344, females, inhaled, site: pituitary gland, anterior, lesion: adenoma, NOS, dosed 103 weeks, study length 105 weeks) was 83.8 mg/kg/day. The TD50 (rat, strain Fischer 344, females, inhaled, site: thyroid gland, lesion: follicular-cell adenoma + follicular-cell carcinoma, dosed 103 weeks, study length 105 weeks) was 509 mg/kg/day, the TD50 (rat, strain Fischer 344, males, inhaled, site: any site (literature study), lesion: several types, types named in the paper, dosed 103 weeks, study length 105 weeks) was 79.6 mg/kg/day and the TD50 (rat, strain Fischer 344, males, inhaled, site: liver, lesion: hepatocellular adenoma + hepatocellular carcinoma + neoplastic nodule, dosed 103 weeks, study length 105 weeks) was 622 mg/kg/day. It also gave a TD50 (rat, strain Fischer 344, males, inhaled, site: lung + nasal cavity, lesion: alveolar/bronchiolar adenoma + alveolar/bronchiolar carcinoma + papillary adenoma, dosed 103 weeks, study length 105 weeks) of 106 mg/kg/day, a TD50 (rat, strain Fischer 344, males, inhaled, site: lung, lesion: alveolar/bronchiolar adenoma + alveolar/bronchiolar carcinoma, dosed 103 weeks, study length 105 weeks) of 220 mg/kg/day and a TD50 (rat, strain Fischer 344, males, inhaled, site: lung, lesion: alveolar/bronchiolar carcinoma, dosed 103 weeks, study length 105 weeks) of 314 mg/kg/day. It also gave a TD50 (rat, strain Fischer 344, males, inhaled, site: multiple organs + spleen, lesion: mononuclear-cell leukemia, dosed 103 weeks, study length 105 weeks) of 30.7 mg/kg/day and a TD50 (rat, strain Fischer 344, males, inhaled, site: nasal cavity, lesion: papillary adenoma, dosed 103 weeks, study length 105 weeks) of 220 mg/kg/day.
For `Cc1ccc(C)c(OCCCC(C)(C)C(=O)O)c1`, the TD50 (mouse, strain Charles River CD1, females, in feed, site: any site (literature study), lesion: several types, types named in the paper, dosed 78 weeks, study length 78 weeks) was 1690 mg/kg/day (inactive), the TD50 (mouse, strain Charles River CD1, females, in feed, site: liver, lesion: hepatocellular adenoma, dosed 78 weeks, study length 78 weeks) was 6600 mg/kg/day (inactive) and the TD50 (mouse, strain Charles River CD1, females, in feed, site: lung, lesion: several types, types named in the paper, dosed 78 weeks, study length 78 weeks) was 11800 mg/kg/day (inactive). The carcinogen call (mouse, strain Charles River CD1, males, in feed, site: any site (literature study), lesion: several types, types named in the paper, dosed 78 weeks, study length 78 weeks) was “negative (inactive)”, the TD50 (mouse, strain Charles River CD1, males, in feed, site: liver, lesion: several types, types named in the paper, dosed 78 weeks, study length 78 weeks) was 1660 mg/kg/day (inactive) and the carcinogen call (mouse, strain Charles River CD1, males, in feed, site: lung, lesion: several types, types named in the paper, dosed 78 weeks, study length 78 weeks) was “negative (inactive)”. For the same molecule, the carcinogen call (rat, strain Charles River CD (Sprague-Dawley), females, in feed, site: any site (literature study), lesion: several types, types named in the paper, dosed 104 weeks, study length 104 weeks) was “negative (inactive)”, the TD50 (rat, strain Charles River CD (Sprague-Dawley), females, in feed, site: liver, lesion: hepatocellular carcinoma, dosed 104 weeks, study length 104 weeks) was 504 mg/kg/day (inactive) and the TD50 (rat, strain Charles River CD (Sprague-Dawley), males, in feed, site: adrenal gland, lesion: pheochromocytoma, dosed 104 weeks, study length 104 weeks) was 85.9 mg/kg/day. The TD50 (rat, strain Charles River CD (Sprague-Dawley), males, in feed, site: any site (literature study), lesion: benign tumor, dosed 104 weeks, study length 104 weeks) was 196 mg/kg/day, the TD50 (rat, strain Charles River CD (Sprague-Dawley), males, in feed, site: any site (literature study), lesion: several types, types named in the paper, dosed 104 weeks, study length 104 weeks) was 202 mg/kg/day and the TD50 (rat, strain Charles River CD (Sprague-Dawley), males, in feed, site: liver, lesion: hepatocellular carcinoma, dosed 104 weeks, study length 104 weeks) was 247 mg/kg/day. The TD50 (rat, strain Charles River CD (Sprague-Dawley), males, in feed, site: pancreas, lesion: several types, types named in the paper, dosed 104 weeks, study length 104 weeks) was 161 mg/kg/day and the TD50 (rat, strain Charles River CD (Sprague-Dawley), males, in feed, site: testis, lesion: interstitial-cell tumor, dosed 104 weeks, study length 104 weeks) was 516 mg/kg/day.
`Nc1cc([N+](=O)[O-])ccc1O` was tested, and the carcinogen call (mouse, strain B6C3F1, females, by gavage, site: any site (literature study), lesion: several types, types named in the paper, dosed 103 weeks, study length 105 weeks) was “negative (inactive)”, the TD50 (mouse, strain B6C3F1, females, by gavage, site: liver, lesion: hepatocellular adenoma + hepatocellular carcinoma + neoplastic nodule, dosed 103 weeks, study length 105 weeks) was 2160 mg/kg/day and the TD50 (mouse, strain B6C3F1, females, by gavage, site: lung, lesion: alveolar/bronchiolar adenoma + alveolar/bronchiolar carcinoma, dosed 103 weeks, study length 105 weeks) was 2180 mg/kg/day. For the same molecule, the TD50 (mouse, strain B6C3F1, males, by gavage, site: abdominal cavity + liver + mesenteric lymph node + pancreas + spleen + subcutaneous tissue, lesion: hemangioma + hemangiosarcoma, dosed 103 weeks, study length 105 weeks) was 798 mg/kg/day (inactive), the TD50 (mouse, strain B6C3F1, males, by gavage, site: any site (literature study), lesion: several types, types named in the paper, dosed 103 weeks, study length 105 weeks) was 582 mg/kg/day and the carcinogen call (rat, strain Fischer 344, females, by gavage, site: any site (literature study), lesion: several types, types named in the paper, dosed 103 weeks, study length 105 weeks) was “negative (inactive)”. For the same molecule, the TD50 (rat, strain Fischer 344, males, by gavage, site: any site (literature study), lesion: several types, types named in the paper, dosed 103 weeks, study length 105 weeks) was 84.1 mg/kg/day, the TD50 (rat, strain Fischer 344, males, by gavage, site: kidney cortex, lesion: adenoma, NOS, dosed 103 weeks, study length 105 weeks) was 839 mg/kg/day and the TD50 (rat, strain Fischer 344, males, by gavage, site: liver, lesion: hepatocellular adenoma + hepatocellular carcinoma + neoplastic nodule, dosed 103 weeks, study length 105 weeks) was 1300 mg/kg/day. For the same molecule, the TD50 (rat, strain Fischer 344, males, by gavage, site: liver, lesion: hepatocellular carcinoma + neoplastic nodule, dosed 103 weeks, study length 105 weeks) was 1300 mg/kg/day, the TD50 (rat, strain Fischer 344, males, by gavage, site: subcutaneous tissue, lesion: fibroma, dosed 103 weeks, study length 105 weeks) was 584 mg/kg/day and the TD50 (rat, strain Fischer 344, males, by gavage, site: subcutaneous tissue, lesion: fibrosarcoma + fibroma + neurofibrosarcoma + sarcoma, NOS, dosed 103 weeks, study length 105 weeks) was 458 mg/kg/day. It also gave a TD50 (rat, strain Fischer 344, males, by gavage, site: testis, lesion: interstitial-cell tumor, dosed 103 weeks, study length 105 weeks) of 68.2 mg/kg/day.
With `O=C(O)CCC(=O)O` the TD50 (rat, strain F344/DuCrj, females, in drinking water, site: any site (literature study), lesion: one or several types, types not named, dosed 104 weeks, study length 113 weeks) was 4820 mg/kg/day (inactive), the carcinogen call (rat, strain F344/DuCrj, females, in drinking water, site: liver, lesion: one or several types, types not named, dosed 104 weeks, study length 113 weeks) was “negative (inactive)” and the carcinogen call (rat, strain F344/DuCrj, males, in drinking water, site: any site (literature study), lesion: one or several types, types not named, dosed 104 weeks, study length 113 weeks) was “negative (inactive)”. For the same molecule, the carcinogen call (rat, strain F344/DuCrj, males, in drinking water, site: liver, lesion: hepatocellular adenoma, dosed 104 weeks, study length 113 weeks) was “negative (inactive)” and the TD50 (rat, strain F344/DuCrj, males, in drinking water, site: liver, lesion: hepatocellular carcinoma, dosed 104 weeks, study length 113 weeks) was 54700 mg/kg/day (inactive).
